Activity calls are given as the source filed them. The calls are words filed in the database; no cut-off is given here.
Key:
Type in all cases: cell-based
[1] = biological target: T1, Progesterone receptor (Homo sapiens) (UniProt P06401); assay: Agonist activity at PR in human T47D cells using p-nitrophenyl phosphate as substrate assessed as induction of alkaline phosphatase activity at 1 nM incubated for 72 hrs followed by substrate addition measured after 24 hrs by alkaline phosphatase assay relative to control; settings: filed as agonist, time 96.0 hrs
T1 sequence (whole entry): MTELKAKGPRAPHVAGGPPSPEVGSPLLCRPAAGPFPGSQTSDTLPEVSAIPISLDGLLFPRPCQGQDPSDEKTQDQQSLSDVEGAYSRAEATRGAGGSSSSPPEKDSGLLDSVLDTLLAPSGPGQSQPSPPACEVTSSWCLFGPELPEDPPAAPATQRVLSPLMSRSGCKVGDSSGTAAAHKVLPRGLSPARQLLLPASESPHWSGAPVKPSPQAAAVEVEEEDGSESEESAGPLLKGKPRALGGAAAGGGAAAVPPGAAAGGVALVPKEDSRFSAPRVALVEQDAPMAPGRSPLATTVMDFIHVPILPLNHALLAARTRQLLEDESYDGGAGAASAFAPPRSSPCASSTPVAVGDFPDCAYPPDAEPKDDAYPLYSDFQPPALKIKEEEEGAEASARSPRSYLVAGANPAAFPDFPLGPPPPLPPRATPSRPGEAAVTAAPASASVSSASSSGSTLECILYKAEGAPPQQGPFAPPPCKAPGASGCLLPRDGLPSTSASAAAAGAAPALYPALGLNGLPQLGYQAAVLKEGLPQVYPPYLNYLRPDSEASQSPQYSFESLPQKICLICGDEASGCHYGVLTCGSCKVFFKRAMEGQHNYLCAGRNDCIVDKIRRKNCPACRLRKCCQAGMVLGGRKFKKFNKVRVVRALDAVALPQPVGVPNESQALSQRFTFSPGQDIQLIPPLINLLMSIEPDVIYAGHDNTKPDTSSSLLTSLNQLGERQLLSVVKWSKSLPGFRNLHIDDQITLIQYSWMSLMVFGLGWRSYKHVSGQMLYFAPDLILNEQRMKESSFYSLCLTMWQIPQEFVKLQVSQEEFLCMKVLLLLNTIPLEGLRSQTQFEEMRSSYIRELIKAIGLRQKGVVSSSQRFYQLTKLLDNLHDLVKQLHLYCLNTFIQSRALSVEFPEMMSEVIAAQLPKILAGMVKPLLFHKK

Progesterone receptor = biological target: T2, Progesterone receptor (Homo sapiens, UniProt P06401); assay: Agonist activity at PR in human T47D cells using p-nitrophenyl phosphate as substrate assessed as induction of alkaline phosphatase activity incubated for 72 hrs followed by substrate addition measured after 24 hrs by alkaline phosphatase assay
T2 sequence (P06401 whole entry): T1 sequence (whole entry)

[2] = biological target: T1, Progesterone receptor (Homo sapiens); assay: Agonist activity at PR in human T47D cells using p-nitrophenyl phosphate as substrate assessed as fold increase in alkaline phosphatase activity at 25 nM incubated for 72 hrs followed by substrate addition measured after 24 hrs by alkaline phosphatase assay relative to control; settings: filed as agonist, time 96.0 hrs
[3] = biological target: T1, Progesterone receptor (Homo sapiens); assay: Agonist activity at PR in human T47D cells using p-nitrophenyl phosphate as substrate assessed as induction of alkaline phosphatase activity at 125 nM incubated for 72 hrs followed by substrate addition measured after 24 hrs by alkaline phosphatase assay; settings: time 96.0 hrs

Structure (SMILES)	Activity [1] [%]	EC50 (Progesterone receptor) [nM]	fold change (FC) [2]	Activity [3]
CC(=O)O[C@]1(C(C)=O)CC[C@H]2[C@@H]3CCC4=CC(=O)CC[C@@H]4[C@H]3[C@@H](C)C[C@@]21C [NORGESTOMET]	106	4.5	2	
CC(=O)O[C@@]1(C(C)=O)CC[C@H]2[C@@H]3CCC4=CC(=O)CC[C@@H]4[C@H]3[C@@H](C)C[C@@]21C	89.3	> 125		inactive
CC(=O)[C@H]1CC[C@H]2[C@@H]3CCC4=CC(=O)CC[C@]4(C)[C@H]3CC[C@]12C	158			
